Experimental data published in patent publication US11254661B2, “Quinoline derivatives for treating infections with helminths” (Bayer Animal Health GMBH, priority 2017, dated 2022).

How the values were obtained:
[1] = test system: Dirofilaria immitis microfilariae; experiment: In Vitro Assay 2: Dirofilaria immitis microfilariae (DIROIM L1) motility; conditions: 72 h
[2] = test system: Dirofilaria immitis third-stage larvae; experiment: In Vitro Assay 3: Dirofilaria immitis (DIROIM L4) larval motility; conditions: 72 h
C. elegans Slo-1a = C. elegans Slo-1a (Caenorhabditis elegans, UniProt Q95V25)
Chain of C. elegans Slo-1a (Q95V25 whole entry): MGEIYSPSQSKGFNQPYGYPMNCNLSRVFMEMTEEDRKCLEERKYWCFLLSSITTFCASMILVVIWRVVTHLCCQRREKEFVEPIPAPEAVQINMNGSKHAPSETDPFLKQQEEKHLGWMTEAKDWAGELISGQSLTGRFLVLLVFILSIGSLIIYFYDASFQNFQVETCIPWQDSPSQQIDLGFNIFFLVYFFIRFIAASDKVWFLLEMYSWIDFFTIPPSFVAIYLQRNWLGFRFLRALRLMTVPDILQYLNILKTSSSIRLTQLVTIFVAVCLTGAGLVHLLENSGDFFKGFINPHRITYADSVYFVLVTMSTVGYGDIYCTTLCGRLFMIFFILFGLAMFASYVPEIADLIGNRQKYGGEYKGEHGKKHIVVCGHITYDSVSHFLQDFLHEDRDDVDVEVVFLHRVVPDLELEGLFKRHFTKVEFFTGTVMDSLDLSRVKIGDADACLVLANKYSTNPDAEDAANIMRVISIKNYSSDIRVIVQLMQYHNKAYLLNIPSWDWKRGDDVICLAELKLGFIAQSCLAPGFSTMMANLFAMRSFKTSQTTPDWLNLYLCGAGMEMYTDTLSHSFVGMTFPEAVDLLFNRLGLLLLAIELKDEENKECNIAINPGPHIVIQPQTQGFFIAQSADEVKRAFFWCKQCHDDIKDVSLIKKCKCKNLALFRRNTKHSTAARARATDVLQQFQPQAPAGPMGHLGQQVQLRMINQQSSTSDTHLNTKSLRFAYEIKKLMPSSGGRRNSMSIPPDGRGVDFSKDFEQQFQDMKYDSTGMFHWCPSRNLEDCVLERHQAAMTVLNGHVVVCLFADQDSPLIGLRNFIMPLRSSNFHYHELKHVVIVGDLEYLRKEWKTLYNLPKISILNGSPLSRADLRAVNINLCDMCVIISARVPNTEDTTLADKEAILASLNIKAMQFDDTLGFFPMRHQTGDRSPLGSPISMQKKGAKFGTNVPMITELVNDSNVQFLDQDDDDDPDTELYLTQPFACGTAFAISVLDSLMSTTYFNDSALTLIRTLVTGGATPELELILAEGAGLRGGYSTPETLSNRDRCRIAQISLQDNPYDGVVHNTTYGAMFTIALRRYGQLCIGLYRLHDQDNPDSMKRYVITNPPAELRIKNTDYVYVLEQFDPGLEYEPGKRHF
Method: In Vitro Assay 1: C. elegans Slo-1a—Action at a Recombinant C. elegans Cell Line
Cells were cultured at 37° C. and 5% CO2 in MEMalpha with Gutamax I (Invitrogen, Nr.: 32571), supplemented with 10% (v/v) heat inactivated fetal bovine serum (Invitrogen, Nr.: 10500), G418 (1 mg/ml, Invitrogen, Nr.: 10131). Cells were detached using Accutase (Sigma, Nr.: A6964).
Membrane Potential Measurements
Laboratory compound testing was performed on 384-well microtiter plates (MTPs, Greiner, Nr.: 781092). 8000 cells/well were plated onto 384-well MTPs and cultured for 20 to 24 hours at 37° C. and 5% CO2. After removal of the cell culture medium, the cells were washed once with tyrode (150 mM NaCl, 0.3 mM KCl, 2 mM CaCl2, 1 mM MgCl2, 0.8 mM NaH2PO4, 5 mM Glucose, 28 mM Hepes, pH 7.4) and then loaded with the voltage sensitive dye of the Membrane Potential Assay Kit diluted in tyrode for 1 h at room temperature.
After starting the measurement of fluorescence using a FLIPR Tetra(Molecular Devices, Exc. 510-545 nm, Emm. 565-625 nm), test compounds were added followed by the addition of KCl tyrode (final assay concentration: 70 mM KCl, 2 mM CaCl2, 1 mM MgCl2, 0.8 mM NaH2PO4, 5 mM Glucose, 28 mM Hepes, pH 7.4, including the voltage sensitive dye). The measurement was completed after 7 minutes.

Row | SMILES | EC50 [1] [µg/mL] | EC50 [2] [µg/mL] | EC50 (C. elegans Slo-1a) [nM]
1 | O=C(N[C@H]1CCc2ccccc21)c1cnc2c(N3CCCCC3)c(F)ccc2c1N1CCOCC1 [Example 43, N-[(1S)-2,3-dihydro-1H-inden-1-yl]-7-fluoro-4-(morpholin-4-yl)-8-(piperidin-1-yl)quinoline-3-carboxamide] | < 0.1 | < 0.1 | 3.16 to 31.6
2 | O=C(N[C@H]1CCc2ccccc21)c1cnc2c(N3CCC(F)(F)CC3)c(F)ccc2c1N1CCOCC1 [Example 40, 8-(4,4-difluoropiperidin-1-yl)-N-[(1S)-2,3-dihydro-1H-inden-1-yl]-7-fluoro-4-(morpholin-4-yl)quinoline-3-carboxamide] | < 0.1 | < 0.1 | 3.16 to 31.6
3 | CC(C)c1c(C(=O)N[C@H]2CCOc3ccccc32)cnc2c(N3CCCCC3)c(F)ccc12 [Example 37, N-[(4S)-3,4-dihydro-2H-chromen-4-yl]-7-fluoro-8-(piperidin-1-yl)-4-(propan-2-yl)quinoline-3-carboxamide] | < 0.1 | < 0.1 | 3.16 to 31.6
4 | C[C@@H]1C[C@H](C)CN(c2cccc3c(N4CCOCC4)c(C(=O)N[C@H]4CCOc5ccccc54)cnc23)C1 [Example 33, N-[(4S)-3,4-dihydro-2H-chromen-4-yl]-8-[(3R,5S)-3,5-dimethylpiperidin-1-yl]-4-(morpholin-4-yl)quinoline-3-carboxamide] | < 0.1 | < 0.1 | < 3.16
5 | CN(C)c1c(C(=O)N[C@H]2CCOc3ccccc32)cnc2c(C3=CCC(C)(C)CC3)cccc12 [Example 18, (S)—N-(Chroman-4-yl)-4-(dimethylamino)-8-(4,4-dimethylcyclohex-1-en-1-yl)quinoline-3-carboxamide] | < 10 | < 1 | 31.6 to 316
6 | CC(C)c1c(C(=O)N[C@H]2CCOc3ccccc32)cnc2c(N3C[C@H](C)C[C@H](C)C3)c(F)ccc12 [Example 38, N-[(4S)-3,4-dihydro-2H-chromen-4-yl]-8-[(3R,5S)-3,5-dimethylpiperidin-1-yl]-7-fluoro-4-(propan-2-yl)quinoline-3-carboxamide] | < 0.1 | < 0.1 | < 3.16
7 | CC(C)CC(C)c1cccc2c(N3CCOCC3)c(C(=O)N[C@H]3CCOc4ccccc43)cnc12 (stereo partly drawn) [Example 22, N-[(4S)-3,4-dihydro-2H-chromen-4-yl]-8-(4-methylpentan-2-yl)-4-(morpholin-4-yl)quinoline-3-carboxamide] | < 0.1 | < 0.1 | 3.16 to 31.6
8 | C[C@@H]1C[C@H](C)CN(c2cccc3c(N(C)C)c(C(=O)N[C@H]4CCOc5ccccc54)cnc23)C1 [Example 34, N-[(4S)-3,4-dihydro-2H-chromen-4-yl]-4-(dimethylamino)-8-[(3R,5S)-3,5-dimethylpiperidin-1-yl]quinoline-3-carboxamide] | < 1 | < 0.1 | < 3.16
9 | CN(C)c1c(C(=O)N[C@H]2CCOc3ccccc32)cnc2c(C3CCCCCC3)cccc12 [Example 15, (S)—N-(Chroman-4-yl)-8-cycloheptyl-4-(dimethylamino)quinoline-3-carboxamide] | < 0.1 | < 0.1 | 3.16 to 31.6
10 | CC1CC(C)CN(c2c(F)ccc3c(N4CCOCC4)c(C(=O)N[C@H]4CCc5ccccc54)cnc23)C1 (stereo partly drawn) [Example 49, N-[(1S)-2,3-dihydro-1H-inden-1-yl]-8-(3,5-dimethylpiperidin-1-yl)-7-fluoro-4-(morpholin-4-yl)quinoline-3-carboxamide] | < 0.1 | < 0.1 | < 3.16
11 | O=C(N[C@H]1CCOc2ccccc21)c1cnc2c(NC3CCCCC3)cccc2c1N1CCOCC1 [Example 25, 8-(cyclohexylamino)-N-[(4S)-3,4-dihydro-2H-chromen-4-yl]-4-(morpholin-4-yl)quinoline-3-carboxamide] | < 10 |  | 3.16 to 31.6
12 | O=C(N[C@H]1CCOc2ccccc21)c1cnc2c(N3CCOCC3)cccc2c1N1CCOCC1 [Example 24, N-[(4S)-3,4-dihydro-2H-chromen-4-yl]-4,8-di(morpholin-4-yl)quinoline-3-carboxamide] | < 10 |  | 316 to 5010
